Reference: US9828385B2, “Spiro-oxazolones” (Hoffmann-La Roche Inc., priority 2014, dated 2017)

Target: T1, human V1a receptor (Homo sapiens, UniProt P37288)
T1 construct: expressed in transfected cells; host or cells: HEK293 cells, transiently transfected; cell membranes
Test: human V1a receptor binding studies (3H-Vasopressin, SPA beads)
Conditions: membranes of HEK293 cells transiently transfected with human V1a receptor, Ki by Cheng-Prussoff from IC50, read-out: pKi hV1a (converted)
Procedure, shortened: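 Membranes from transiently transfected HEK293 cells expressing cloned human V1a receptor, on yttrium silicate SPA beads, competed against 4 nM 3H-vasopressin (added stock concentration) in Tris buffer with NaCl, KCl, CaCl2, MgCl2 for 1 h at room temperature. Nonspecific binding with cold vasopressin; IC50 by nonlinear fit, Ki via Cheng-Prusoff.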

T1 sequence (P37288 whole entry): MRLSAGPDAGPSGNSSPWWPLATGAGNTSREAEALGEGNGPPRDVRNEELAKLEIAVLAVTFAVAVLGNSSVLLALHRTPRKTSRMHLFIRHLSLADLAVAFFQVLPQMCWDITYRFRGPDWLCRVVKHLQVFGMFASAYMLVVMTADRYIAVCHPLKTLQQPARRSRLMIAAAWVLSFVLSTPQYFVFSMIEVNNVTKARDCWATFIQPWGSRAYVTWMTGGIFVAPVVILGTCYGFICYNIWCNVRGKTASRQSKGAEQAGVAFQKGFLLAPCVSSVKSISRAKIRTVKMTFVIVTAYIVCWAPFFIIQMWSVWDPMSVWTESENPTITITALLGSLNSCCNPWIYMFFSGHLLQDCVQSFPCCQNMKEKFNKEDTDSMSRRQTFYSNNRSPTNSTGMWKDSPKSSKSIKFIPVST

SMILES | Ki [nM]
O=C1N=C(N2CCC3(CC2)OCc2ccccc23)OC12CCCOC2 (stereo not shown) [Example 125, 2-(1′H,3H-Spiro[2-benzofuran-1,4′-piperidin]-1′-yl)-1,7-dioxa-3-azaspiro[4.5]dec-2-en-4-one] | 200
CC(c1ccccc1)C1(C)OC(N2CCC3(CC2)OCc2ccccc23)=NC1=O (single isomer, unassigned; diastereomer a) [Example 106, 5-Methyl-5-(1-phenylethyl)-2-(1′H,3H-spiro[2-benzofuran-1,4′-piperidin]-1′-yl)-1,3-oxazol-4(5H)-one diastereomer a] | 15.8
O=C1N=C(N2CCC3(CC2)OCc2ccccc23)OC1C(O)c1ccc(Cl)cc1 (single isomer, unassigned; diastereomer a) [Example 42, (−)-5-[(4-Chlorophenyl)(hydroxy)methyl]-2-(1′H,3H-spiro[2-benzofuran-1,4′-piperidin]-1′-yl)-1,3-oxazol-4(5H)-one diastereomer a] | 3.16
O=C1N=C(N2CCC3(CC2)OCc2ccccc23)OC12CCN(Cc1ccccc1)CC2 [Example 135, 8-Benzyl-2-(1′H,3H-spiro[2-benzofuran-1,4′-piperidin]-1′-yl)-1-oxa-3,8-diazaspiro[4.5]dec-2-en-4-one] | 398
CC1(Cc2ccccc2)OC(N2CCC3(CC2)OCc2ccccc23)=NC1=O (single isomer, unassigned; (+)) [Example 70, (+)-5-Benzyl-5-methyl-2-(1′H,3H-spiro[2-benzofuran-1,4′-piperidin]-1′-yl)-1,3-oxazol-4(5H)-one] | 7.94
O=C1N=C(N2CCC3(CC2)OCc2ccccc23)OC1C(O)c1ccc(Cl)cc1 (single isomer, unassigned; diastereomer b) [Example 45, (+)-5-[(4-Chlorophenyl)(hydroxy)methyl]-2-(1′H,3H-spiro[2-benzofuran-1,4′-piperidin]-1′-yl)-1,3-oxazol-4(5H)-one diastereomer b] | 15.8
O=C1N=C(N2CCC3(CC2)c2ccccc2CS3(=O)=O)OC12Cc1ccccc1C2 [Example 150, 2′-(2,2-Dioxido-1′H,3H-spiro[2-benzothiophene-1,4′-piperidin]-1′-yl)-1,3-dihydro-4′H-spiro[indene-2,5′-[1,3]oxazol]-4′-one] | 0.251
CC1(Cc2ccc(Cl)nc2)OC(N2CCC3(CC2)OCc2ccccc23)=NC1=O (single isomer, unassigned; (+)) [Example 84, (+)-5-[(6-Chloropyridin-3-yl)methyl]-5-methyl-2-(1′H,3H-spiro[2-benzofuran-1,4′-piperidin]-1′-yl)-1,3-oxazol-4(5H)-one] | 501
O=C1N=C(N2CCC3(CC2)OCc2ccccc23)OC12CCC(F)(F)CC2 [Example 130, 8,8-Difluoro-2-(1′H,3H-spiro[2-benzofuran-1,4′-piperidin]-1′-yl)-1-oxa-3-azaspiro[4.5]dec-2-en-4-one] | 6.31
O=C1N=C(N2CCC3(CC2)OCc2ccccc23)OC1c1ccccc1 (stereo not shown) [Example 12, 5-Phenyl-2-(1′H,3H-spiro[2-benzofuran-1,4′-piperidin]-1′-yl)-1,3-oxazol-4(5H)-one] | 316
CC(c1ccccc1)C1(C)OC(N2CCC3(CC2)OCc2ccccc23)=NC1=O (single isomer, unassigned; diastereomer b) [Example 110, (−)-5-Methyl-5-(1-phenylethyl)-2-(1′H,3H-spiro[2-benzofuran-1,4′-piperidin]-1′-yl)-1,3-oxazol-4(5H)-one diastereomer b] | 6.31
CCCCC1OC(N2CCC3(CC2)OCc2ccccc23)=NC1=O (stereo not shown) [Example 2, 5-Butyl-2-(1′H,3H-spiro[2-benzofuran-1,4′-piperidin]-1′-yl)-1,3-oxazol-4(5H)-one] | 5.01
O=C1OC2(CCN(C3=NC(=O)C(Cc4ccc(Cl)cc4)(Cc4ccc(Cl)cc4)O3)CC2)c2ccccc21 [Example 95, 1′-[5,5-Bis(4-chlorobenzyl)-4-oxo-4,5-dihydro-1,3-oxazol-2-yl]-3H-spiro[2-benzofuran-1,4′-piperidin]-3-one] | 5.01
O=C1N=C(N2CCC3(CC2)OCc2ccccc23)OC1CC1CCCC1 (single isomer, unassigned; enantiomer a) [Example 13, 5-(Cyclopentylmethyl)-2-(1′H,3H-spiro[2-benzofuran-1,4′-piperidin]-1′-yl)-1,3-oxazol-4(5H)-one enantiomer A] | 0.794
C=CCC1(CC(=C)C)OC(N2CCC3(CC2)OCc2ccccc23)=NC1=O (stereo not shown) [Example 59, 5-Allyl-5-(2-methylallyl)-2-(1′H,3H-spiro[2-benzofuran-1,4′-piperidin]-1′-yl)-1,3-oxazol-4(5H)-one] | 10
O=C1N=C(N2CCC3(CC2)OCc2ccccc23)OC12C[C@@H]1OCCO[C@@H]1C2 (single isomer, unassigned; diastereomer b) [Example 145, 2′-(1′H,3H-Spiro[2-benzofuran-1,4′-piperidin]-1′-yl)-2,3,4a,5,7,7a-hexahydro-4′H-spiro[cyclopenta[b][1,4]dioxine-6,5′-[1,3]oxazol]-4′-one diastereomer b] | 50.1

SMILES | Ki [nM]
O=C1N=C(N2CCC3(CC2)OCc2ccccc23)OC1C(O)c1ccccc1 (single isomer, unassigned) [Example 39, 5-(Hydroxy(phenyl)methyl)-2-(1′H,3H-spiro[2-benzofuran-1,4′-piperidin]-1′-yl)-1,3-oxazol-4(5H)-one diastereomer b, enantiomer B] | 126
O=C1OC2(CCN(C3=NC(=O)C(C(O)c4ccc(Cl)cc4)O3)CC2)c2ccccc21 (single isomer, unassigned) [Example 51, 1′-{-5-[(4-Chlorophenyl)(hydroxy)methyl]-4-oxo-4,5-dihydro-1,3-oxazol-2-yl}-3H-spiro[2-benzofuran-1,4′-piperidin]-3-one diastereomer a, enantiomer B] | 158
CC1=CCC2(C1)OC(N1CCC3(CC1)OCc1ccccc13)=NC2=O (stereo not shown) [Example 114, 7-Methyl-2-(1′H,3H-spiro[2-benzofuran-1,4′-piperidin]-1′-yl)-1-oxa-3-azaspiro[4.4]nona-2,7-dien-4-one] | 12.6
O=C1N=C(N2CCC3(CC2)OCc2ccccc23)OC12CC=CC2 [Example 113, 2-(1′H,3H-Spiro[2-benzofuran-1,4′-piperidin]-1′-yl)-1-oxa-3-azaspiro[4.4]nona-2,7-dien-4-one] | 100
CC1(CC2CCCOC2)OC(N2CCC3(CC2)OCc2ccccc23)=NC1=O (single isomer, unassigned; diastereomer b) [Example 104, (+)-5-Methyl-2-(1′H,3H-spiro[2-benzofuran-1,4′-piperidin]-1′-yl)-5-(tetrahydro-2H-pyran-3-ylmethyl)-1,3-oxazol-4(5H)-one diastereomer b] | 50.1
CC(c1ccccc1)C1(C)OC(N2CCC3(CC2)OCc2ccccc23)=NC1=O (single isomer, unassigned; diastereomer a) [Example 108, (+)-5-Methyl-5-(1-phenylethyl)-2-(1′H,3H-spiro[2-benzofuran-1,4′-piperidin]-1′-yl)-1,3-oxazol-4(5H)-one diastereomer a] | 12.6
CC1(Cc2ccc(Cl)s2)OC(N2CCC3(CC2)OCc2ccccc23)=NC1=O (single isomer, unassigned; (-)) [Example 87, (−)-5-[(5-Chlorothiophen-2-yl)methyl]-5-methyl-2-(1′H,3H-spiro[2-benzofuran-1,4′-piperidin]-1′-yl)-1,3-oxazol-4(5H)-one] | 200
CC1(Cc2c(F)c(F)c(F)c(F)c2F)OC(N2CCC3(CC2)OCc2ccccc23)=NC1=O (stereo not shown) [Example 88, 5-Methyl-5-(pentafluorobenzyl)-2-(1′H,3H-spiro[2-benzofuran-1,4′-piperidin]-1′-yl)-1,3-oxazol-4(5H)-one] | 79.4
O=C1OC2(CCN(C3=NC(=O)C(C(O)c4ccc(Cl)cc4)O3)CC2)c2ccccc21 (single isomer, unassigned) [Example 52, 1′-{-5-[(4-Chlorophenyl)(hydroxy)methyl]-4-oxo-4,5-dihydro-1,3-oxazol-2-yl}-3H-spiro[2-benzofuran-1,4′-piperidin]-3-one diastereomer b, enantiomer A] | 631
CCCCC1OC(N2CCC3(CC2)OC(=O)c2ccccc23)=NC1=O (single isomer, unassigned; enantiomer a) [Example 5, 1′-[5-Butyl-4-oxo-4,5-dihydro-1,3-oxazol-2-yl]-3H-spiro[2-benzofuran-1,4′-piperidin]-3-one enantiomer A] | 251
O=C1N=C(N2CCC3(CC2)OCc2ccccc23)OC12CC=C(CO)C2 (stereo not shown) [Example 119, 7-(Hydroxymethyl)-2-(3H-spiro[isobenzofuran-1,4′-piperidine]-1′-yl)-1-oxa-3-azaspiro[4.4]nona-2,7-dien-4-one] | 1000
O=C1C=C2CC3(CC2C1)OC(N1CCC2(CC1)OCc1ccccc12)=NC3=O (stereo not shown) [Example 142, 2-(1′H,3H-Spiro[2-benzofuran-1,4′-piperidin]-1′-yl)-3a′,4′-dihydro-1′H,4H-spiro[1,3-oxazole-5,2′-pentalene]-4,5′(3′H)-dione] | 158
O=C1N=C(N2CCC3(CC2)OCc2ccccc23)OC1C(O)c1ccc(Cl)cc1 (stereo not shown) [Example 40, 5-[(4-Chlorophenyl)(hydroxy)methyl]-2-(1′H,3H-spiro[2-benzofuran-1,4′-piperidin]-1′-yl)-1,3-oxazol-4(5H)-one] | 3.98
O=C1OC2(CCN(C3=NC(=O)C4(CCCCC4)O3)CC2)c2ccccc21 [Example 124, 1′-(4-Oxo-1-oxa-3-azaspiro[4.5]dec-2-en-2-yl)-3H-spiro[2-benzofuran-1,4′-piperidin]-3-one] | 158
CCC1(Cc2ccccc2)OC(N2CCC3(CC2)OCc2ccccc23)=NC1=O (stereo not shown) [Example 74, 5-Benzyl-5-ethyl-2-(1′H,3H-spiro[2-benzofuran-1,4′-piperidin]-1′-yl)-1,3-oxazol-4(5H)-one] | 10
